According to patent publication EP4631962A1, “PEPTIDE FOR CARTILAGE REGENERATION, AND USES THEREOF” (Caregen Co., Ltd., priority 2022, dated 2024):
Where a SMILES comes first, the peptide text is derived from it. Where no end group is shown, it is not given here.

Assays:
[1] = system: human-derived chondrocyte cells (C28/I2, human chondrocyte cell line); assay: CCK-8 assay, cytotoxicity in chondrocytes; format: cell-based; settings: different concentrations, after 3 days, FIG. 1 and FIG. 2
Procedure: (§1) The cytotoxicity of Peptide-1 or Peptide-2 upon addition to human-derived chondrocyte cells (C28/I2, human chondrocyte cell line) and human adipose-derived mesenchymal stem cells (AD-MSC) was analyzed using a CCK-8 assay.
Specifically, human-derived chondrocytes were seeded in a 96-well plate at a density of 3 × 10^3 cells/well and cultured in DMEM medium (cat. 11995-065, Gibco) for 24 hours.

[2] = system: human adipose-derived mesenchymal stem cells (AD-MSC); assay: CCK-8 assay, cytotoxicity in AD-MSC; format: cell-based; settings: different concentrations, after 7 days, FIG. 3
Procedure: as §1

| Molecule | toxicity (CCK-8 activity) [1] | toxicity (CCK-8 activity) [2] |
| --- | --- | --- |
| N[C@@H](CCC(=O)O)C(=O)N[C@@H](CC(=O)O)C(=O)N[C@@H](CC(=O)O)C(=O)O [Peptide-2, EDD] (H-Glu-Asp-Asp-OH) | did not exhibit toxicity |  |
| KRRRKRK [Peptide-1, KRRRKRK] | did not exhibit toxicity | did not exhibit toxicity |
